Earlier results as cited in patent US6673908B1, “Tumor necrosis factor receptor 2” (Nuvelo, Inc., priority 1999, dated 2004).
Counter-ions that a name gives are not always drawn. Like-named read-outs stand apart in the source and are kept apart here.

Legend:
[1] = system: advanced colorectal cancer
5-lipoxygenase (5-LO) = biological target: T1, 5-lipoxygenase (5-LO) (Homo sapiens, UniProt P09917); conditions: for FEV1, % change from baseline: high dose
T1 construct: host or cells: asthma patients (in vivo, endogenous enzyme)
T1 sequence (P09917 1-674): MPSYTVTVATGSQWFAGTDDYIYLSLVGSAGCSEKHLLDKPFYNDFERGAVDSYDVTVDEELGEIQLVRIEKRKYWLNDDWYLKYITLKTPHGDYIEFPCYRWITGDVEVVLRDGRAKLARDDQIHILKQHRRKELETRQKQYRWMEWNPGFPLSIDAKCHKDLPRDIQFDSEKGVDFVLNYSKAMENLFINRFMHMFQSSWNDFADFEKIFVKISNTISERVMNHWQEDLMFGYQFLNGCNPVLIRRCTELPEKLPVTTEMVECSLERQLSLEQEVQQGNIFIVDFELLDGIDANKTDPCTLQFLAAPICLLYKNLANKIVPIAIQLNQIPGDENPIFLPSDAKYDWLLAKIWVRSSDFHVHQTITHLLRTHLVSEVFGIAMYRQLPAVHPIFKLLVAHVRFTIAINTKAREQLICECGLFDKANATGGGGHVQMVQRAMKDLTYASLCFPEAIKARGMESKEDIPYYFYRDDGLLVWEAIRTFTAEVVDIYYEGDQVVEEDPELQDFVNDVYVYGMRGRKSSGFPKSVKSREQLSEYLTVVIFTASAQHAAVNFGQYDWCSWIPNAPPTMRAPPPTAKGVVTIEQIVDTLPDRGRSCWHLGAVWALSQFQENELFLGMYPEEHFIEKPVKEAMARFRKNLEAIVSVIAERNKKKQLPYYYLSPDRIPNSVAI

CD3 lymphocytes = conditions: in vivo

O=c1[nH]cc(F)c(=O)[nH]1 [5-fluorouracil]
patients with a complete response (complete tumor disappearance) [1]: 1-5%
patients with an objective response [1]: 20-40%

C[C@H](C#Cc1ccc(Cc2ccc(F)cc2)s1)N(O)C(N)=O [ABT-761]
FEV1, % change from baseline (5-lipoxygenase (5-LO); Mutant, Day 8): 1.8%
FEV1, % change from baseline (5-lipoxygenase (5-LO); Mutant, Day 84): 5%
FEV1, % change from baseline (5-lipoxygenase (5-LO); Wild type, Day 8): 8.2%
FEV1, % change from baseline (5-lipoxygenase (5-LO); Wild type, Day 84): 18.5%
improvement of forced expiratory volume (5-lipoxygenase (5-LO); heterozygous patients, high-dose active treatment, within one week): 23.3±6.0%
improvement of forced expiratory volume (5-lipoxygenase (5-LO); patients with mutant genotype, active 5-LO inhibitor treatment): −1.2±2.9%
improvement of forced expiratory volume (5-lipoxygenase (5-LO); wild-type patients, high-dose active treatment): 18.8±3.6%

Nc1c2c(nc3ccccc13)CCCC2 [Cognex, tacrine hydrochloride]
patients showing no change or minimal worsening of their disease (Alzheimer's disease patients): about 45%
patients minimally improved (Alzheimer's patients): About 58%
patients much improved (Alzheimer's patients): about 2%

COc1ccc(CC(C)NCC(O)c2ccc(O)c(NC=O)c2)cc1 (stereo not shown) [Formoterol]
Degree of Brochodilator Desensitisation after Formoterol Therapy: 6 Hour FEF25-75 (β2-adrenergic receptor; Arg 16 (n = 4)): 23%
Degree of Brochodilator Desensitisation after Formoterol Therapy: 6 hour FEV1 (β2-adrenergic receptor; Arg 16 (n = 4)): 28%
Degree of Brochodilator Desensitisation after Formoterol Therapy: Maximal FEF25-75 (β2-adrenergic receptor; Arg 16 (n = 4)): −35%
Degree of Brochodilator Desensitisation after Formoterol Therapy: Maximal FEV1 (β2-adrenergic receptor; Arg 16 (n = 4)): −8%
mean FEV1 desensitisation (β2-adrenergic receptor; Arg16 homozygotes): 28%
Degree of Brochodilator Desensitisation after Formoterol Therapy: 6 Hour FEF25-75 (β2-adrenergic receptor; Gln27 (n = 5)): 38%
Degree of Brochodilator Desensitisation after Formoterol Therapy: 6 hour FEV1 (β2-adrenergic receptor; Gln27 (n = 5)): 47%
Degree of Brochodilator Desensitisation after Formoterol Therapy: Maximal FEF25-75 (β2-adrenergic receptor; Gln27 (n = 5)): −15%
Degree of Brochodilator Desensitisation after Formoterol Therapy: Maximal FEV1 (β2-adrenergic receptor; Gln27 (n = 5)): 3%
Degree of Brochodilator Desensitisation after Formoterol Therapy: 6 Hour FEF25-75 (β2-adrenergic receptor; Glu/Gln27 (n = 11)): 70%
Degree of Brochodilator Desensitisation after Formoterol Therapy: 6 hour FEV1 (β2-adrenergic receptor; Glu/Gln27 (n = 11)): 65%
Degree of Brochodilator Desensitisation after Formoterol Therapy: Maximal FEF25-75 (β2-adrenergic receptor; Glu/Gln27 (n = 11)): 45%
Degree of Brochodilator Desensitisation after Formoterol Therapy: Maximal FEV1 (β2-adrenergic receptor; Glu/Gln27 (n = 11)): 52%
Degree of Brochodilator Desensitisation after Formoterol Therapy: 6 Hour FEF25-75 (β2-adrenergic receptor; Gly 16 (n = 10)): 103%
Degree of Brochodilator Desensitisation after Formoterol Therapy: 6 hour FEV1 (β2-adrenergic receptor; Gly 16 (n = 10)): 80%
Degree of Brochodilator Desensitisation after Formoterol Therapy: Maximal FEF25-75 (β2-adrenergic receptor; Gly 16 (n = 10)): 73%
Degree of Brochodilator Desensitisation after Formoterol Therapy: Maximal FEV1 (β2-adrenergic receptor; Gly 16 (n = 10)): 48%
mean FEV1 desensitisation (β2-adrenergic receptor; Gly16 homozygotes): 80%
Degree of Brochodilator Desensitisation after Formoterol Therapy: 6 Hour FEF25-75 (β2-adrenergic receptor; Gly/Arg 16 (n = 8)): 70%
Degree of Brochodilator Desensitisation after Formoterol Therapy: 6 hour FEV1 (β2-adrenergic receptor; Gly/Arg 16 (n = 8)): 57%
Degree of Brochodilator Desensitisation after Formoterol Therapy: Maximal FEF25-75 (β2-adrenergic receptor; Gly/Arg 16 (n = 8)): 50%
Degree of Brochodilator Desensitisation after Formoterol Therapy: Maximal FEV1 (β2-adrenergic receptor; Gly/Arg 16 (n = 8)): 48%

Monoclonal antibody: murine monoclonal antibody to deplete the circulating CD3 lymphocytes; reacts with the T3 recognition site of T-lymphocytes
sensitization rate (CD3 lymphocytes): 15-40%
treated patients producing human anti-mouse antibodies (HAMA) (CD3 lymphocytes): 80%

interferon alpha
patients in whom viral infection is completely and permanently eliminated (hepatitis C virus (HCV); hepatitis C virus infection): less than a quarter of patients
patients receiving virtually no benefit (hepatitis C virus (HCV); hepatitis C virus infection): Nearly half of patients
response rates (hepatitis C virus (HCV); patients with HCV genotype 1 (especially 1b)): under 10%
response rates (hepatitis C virus (HCV); patients with HCV genotype 2 or 3): greater than 40%
